# Measurements taken from article PMC11921695 (BMC Cancer, 2025).
# Legend:
# [1] = system: CD4 cell counts; test: HIV control: CD4 cell counts; format: in vivo, human
# Protocol: HIV control was assessed by plotting longitudinal HIV-1 viral load and CD4 cell counts over time for the per-protocol population. Due to missing data at the pre-treatment cycle 1 […] visit, the CD4 cell counts from the screening visit were used as the baseline comparator. Paired t-tests were done to test the difference between CD4 cell counts at screening, cycle 3 day 22 and cycle 6 day 22. Due to multiple testing, a Bonferroni correction was applied to the significance threshold, calculated as 0.05 ÷ 2 = 0.025.
# HIV-1 viral load and CD4 counts were measured as per standard of care at hospital sites. To measure the concentration of angiogenesis markers, 8.5 ml blood was collected in BD vacutainer no-additive serum tubes. Samples were kept at room temperature for 30 minutes before centrifugation at 2000 g for 20 minutes at room temperature. Serum samples were then stored at -80 °C prior to analysis. Serum Ang-1, Ang-2 and TIE levels were assessed using commercial ELISAs (Thermo Fisher Scientifc hAng-1 (EHANGPT1), R&D DuoSet Ang-2 (DY623), eBioscience hTIE2 (BMS2042)), according to manufacturer instructions at laboratories at the University of Sheffield.
# [2] = system: p38 and JNK; parameters: method as in Banerji, et al.; conditions: protocol background; ref Banerji, et al.; cited from earlier work
# [3] = system: Japanese patients, NSCLC; parameters: method as in study D1532C00067; conditions: selumetinib + Docetaxel, ref study D1532C00067; cited from earlier work
smiles,measurement,setting,value
"Cn1cnc2c(F)c(Nc3ccc(Br)cc3Cl)c(C(=O)NOCCO)cc21 [selumetinib, 6-(4-Bromo-2-chloro-phenylamino)-7-fluro-3-methyl-3 H-benzoimidazole-5-carboxylic acid (2-hydroxy-ethoxy)-amide hydrogen sulphate]",mean increase in CD4 cell counts,"[1]; cycle 3 day 22 vs screening, per-protocol population, 95% CI: 41.91, 280.63, p = 0.013",161.27 cells/mm^3
same,increase in CD4 cell counts,"[1]; cycle 6 day 22 vs pre-treatment, 95% CI: 31.87, 273.47, p = 0.023",152.67 cells/mm^3
same,activity against other kinases including p38 and JNK,[2],"inactive, or minimally active"
same,"febrile neutropenia, patients treated",[3],3 of 8
